Assays:
hα7-wt nAChR = molecular target: T1, hα7-wt nAChR (Homo sapiens, UniProt P36544); test: Ca2+ flux imaging (FDSS) (Protocol B), potentiation of the choline response; format: cell-based; conditions: Ca2+ assay as described in D.1; for EC50: "<5" = activity did not reach a top plateau at maximal concentration; for Emax: read-out: % Efficacy
T1 construct: expressed in transfected cells
Method: Ca^2+ Flux Imaging (FDSS) (Protocol B)
• Hanks buffered saline solution (HBSS, Invitrogen, Belgium), supplemented with 10 mM HEPES (Invitrogen, Belgium), CaCl2 to a final concentration of 5 mM, 0.1% Bovine serum albumin (Sigma-Aldrich NV, Belgium). b) Calcium-Sensitive Dye—Fluo-4AM • Fluo-4AM (Molecular Probes, USA) was dissolved in DMSO containing 10% Pluronic acid (Molecular Probes, USA) to give a stock solution which was diluted in assay buffer supplemented with 5 mM probenicid (Sigma, Aldrich NV, Belgium) to give a final concentration of 2 μM. c) 384-Well Plates • Black 384 well plate black/clear plates, PDL pre-coated (Corning, Incorporated, USA) d) Calcium Flux Measurement • A Functional drug screening system (FDSS, Hamamatsu) was used to measure intracellular free-calcium flux signals. Method
Monolayers of hα7-wt nAChR-expressing cells were grown in multi-well plates, in particular black-sided, transparent bottomed 384 well plates coated with poly-D-lysine for 24 hours prior to loading with a fluorescent calcium indicator, in a particular embodiment loading with fluo-4AM for up to 120 minutes.
PAM activity was detected in real time by applying the compounds to be tested to the loaded cells along with a α7 nicotinic receptor agonist during constant monitoring of cellular fluorescence in a FDSS. Compounds giving peak fluorescent responses greater than the response due to agonist alone, were considered to be α7 nAChR PAM's. In a particular embodiment, the α7 nicotinic receptor agonist was choline, a more particular embodiment choline applied at a sub-maximal concentration of 100 μM. In a further setting of the present invention the compounds to be tested were applied prior to the α7 nicotinic receptor agonist, in a particular embodiment up to 10 minutes prior to the agonist.
A control response to choline was calculated on each plate from the difference in peak in fluorescence in wells receiving either choline or assay buffer alone. Compounds of the present invention were tested at a concentration range from 0.01 μM to 30 μM. Compounds were considered to have an interesting activity when they potentiated the choline signal at least with 200% when tested at a concentration of 30 μM (the efficacy of 100 μM choline was defined as 100% in the absence of a PAM). An EC50 (or pEC50) was determined as a concentration relating to half the maximal effect, when a clear sigmoidal curve with top plateau was obtained.

[1] = molecular target: T2, hα7-wt nAChR-expressing GH4C1 cells (Homo sapiens, UniProt P36544); test: Patch-clamp current recording (whole-cell voltage clamp), potentiation of the choline current and PAM type; format: cell-based; parameters: key: Type 0 compounds minimally enhance the effect size of the current elicited by 1 mM choline.; Type 1 compounds enhance the effect size of the current elicited by 1 mM choline but minimally alter the kinetics of the receptor.; Type 2 compounds enhance the effect size of the current elicited by 1 mM choline while reducing the rate and/or the extent of desensitization.; Type 3 compounds enhance the effect size of the current elicited by 1 mM choline. When tested at higher concentrations up to 10 μM they completely inhibit desensitization, in particular a 1 mM choline application of 250 milliseconds.; Type 4 compounds allow for an initial desensitization of the receptor followed by a re-opening of the receptor during agonist application; conditions: 1 mM choline
T2 construct: expressed in transfected cells
Method: The compounds of the present invention are classified as type 1-4, based on qualitative kinetic properties, as determined by whole-cell voltage-clamp recordings. This classification is based on the effect of an α7 PAM compound, as described hereinbefore, on the signal elicited by an agonist application. In particular, said agonist is choline at a concentration of 1 mM. In a preferred experimental setting, said α7 PAM compound and choline are simultaneously applied to the cell, as described hereinafter. Desensitization is defined as the closure of the receptor upon activation during the application of the agonist in whole-cell voltage-clamp electrophysiology measurements seen as the reduction of the […] current after initial activation by the agonist.
The definition of the PAM types 1-4 is described hereinafter: • Type 0 compounds minimally enhance the effect size of the current elicited by 1 mM choline. • Type 1 compounds enhance the effect size of the current elicited by 1 mM choline but minimally alter the kinetics of the receptor. In particular, the rate and the extent of desensitization, elicited by the agonist, is not affected. The compound-modulated response to 1 mM choline, therefore, is a close to linear scaling of the 1 mM choline response in absence of the α7 PAM compound. • Type 2 compounds enhance the effect size of the current elicited by 1 mM choline while reducing the rate and/or the extent of desensitization. • Type 3 compounds enhance the effect size of the current elicited by 1 mM choline. […] At low-potency concentrations of the α7 PAM compound, the agonist-induced activation, which is followed by desensitization, can still be separated from the compound-induced re-opening as an initial inward current-maximum. At higher potency concentrations of the α7 PAM compound, the re-opening occurs faster than the closure due to desensitization so that the initial current-maximum disappears.
A compound was considered to have interesting PAM-like activity when the potentiation of the peak current was at least 200% compared to the control choline response (=100%). Such compounds are classified as belonging to a particular PAM type in the Experimental Part. Compounds not meeting the condition are not classified as belonging to a particular PAM-type.
The compounds also have a potentiating effect on the response to choline when measured by whole-cell patch clamp electrophysiology in GH4C1 cells stably over-expressing the human wild-type α7 receptor.
Patch-Clamp Current Recording
Patch-clamp recording from mammalian cells has provided a powerful means of assessing the function of membrane-bound proteins thought to be subunits of ligand-gated ion channels. Activation of such proteins by endogenous or exogenous ligands cause opening of a pore associated with the receptor through which ions flow down their electrochemical gradient. In the case of the hα7-wt nAChR-expressing GH4C1 recombinant cell line the preferential permeability to calcium of this receptor means that calcium flows into the cell upon activation by ACh, choline and other nicotinic ligands giving rise to a calcium current. Since this receptor rapidly desensitizes in the presence of agonist it is important an application system is used which is capable of very rapid switching of solutions (<100 ms) to prevent partial or full desensitisation of receptor responses coincident with the time of agonist application. Consequently, a second convenient technique to assess the enhancement of nicotinic efficacy is patch-clamp recording from hα7-wt nAChR-expressing GH4C1 cells coupled with a rapid-application system.
• The external recording solution consisted of 152 mM NaCl, 5 mM KCl, 1 mM MgCl2, 1 mM Calcium, 10 mM HEPES; pH 7.3. […]

T2 sequence (P36544 23-502): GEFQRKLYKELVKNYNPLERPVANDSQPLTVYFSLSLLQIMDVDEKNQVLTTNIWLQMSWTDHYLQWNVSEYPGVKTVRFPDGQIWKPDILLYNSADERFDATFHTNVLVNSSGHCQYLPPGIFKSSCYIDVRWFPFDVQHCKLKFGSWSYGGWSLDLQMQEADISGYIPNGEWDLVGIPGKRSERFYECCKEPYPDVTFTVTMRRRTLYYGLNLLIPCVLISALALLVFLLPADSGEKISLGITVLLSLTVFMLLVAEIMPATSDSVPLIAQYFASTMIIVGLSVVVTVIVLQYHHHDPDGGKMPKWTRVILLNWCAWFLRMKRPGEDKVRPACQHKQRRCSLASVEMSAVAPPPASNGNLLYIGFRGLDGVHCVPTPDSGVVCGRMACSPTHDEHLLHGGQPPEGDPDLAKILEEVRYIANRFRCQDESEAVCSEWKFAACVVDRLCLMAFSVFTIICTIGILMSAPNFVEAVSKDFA
T1 sequence (P36544 23-502): as above

SMILES	EC50 (hα7-wt nAChR) [nM]	PAM type [1]	Emax (hα7-wt nAChR) [%]
CC[C@H](O)Cn1nc(Nc2cccc(Cl)c2)cc1-c1ccnc(COC)c1 [compound 136]	646	1	–
Cc1cc(-c2cc(Nc3ccc4c(c3)OC(F)(F)O4)nn2CC(=O)NC2CC2)cc(C)n1 [compound 145]	479	2	736
CCNc1cc(-c2cc(Nc3cc(F)cc(F)c3)nn2C[C@@H](O)CC)ccn1 [compound 8, (alphaS)-3-[(3,5-difluorophenyl)amino]-alpha-ethyl-5-[2-(ethylamino)-4-pyridinyl]-1H-pyrazole-1-ethanol]	955	1	1000
COc1cc(Cl)cc(Nc2cc(-c3ccnc(C)c3)n(CCC(=O)N(C)C)n2)c1 [compound 126]	912	2	–
Cc1cc(-c2cc(Nc3cccc(Cl)c3)nn2CC(=O)NCC2CC2)ccn1 [compound 163]	324	2	–
CCNC(=O)Cn1nc(Nc2ccc(F)c(F)c2F)cc1-c1ccnc(C)c1 [compound 125]	933	2	972
Cc1cc(-c2cc(Nc3cccc(Cl)c3F)nn2CCC(=O)N(C)C)cc(C)n1 [compound 173]	135	1	401
CCNC(=O)Cn1nc(Nc2ccc(F)c(C(F)(F)F)c2)cc1-c1cc(C)nc(C)c1 [compound 152]	468	2	856
CCNC(=O)Cn1nc(Nc2cc(OC)cc(C(F)(F)F)c2)cc1-c1cc(C)nc(C)c1 [compound 140]	1000	2	–
CCNC(=O)Cn1nc(Nc2cccc(Cl)c2F)cc1-c1cc(C)nc(C)c1 [compound 154]	525	2	901
CC[C@H](O)Cn1nc(Nc2ccc(F)c(C(F)(F)F)c2)cc1-c1ccnc(C)c1 [compound 46]	891	0	–
Cc1cc(-c2cc(Nc3cccc(Cl)c3)nn2CC(=O)NCC2CC2)cc(C)n1 [compound 100]	339	2	–
CNC(=O)Cn1nc(Nc2cccc(C(F)(F)F)c2)cc1-c1ccc2c(c1)OCCO2 [compound 76]	347	4	–
CN(C)C(=O)CCn1nc(Nc2ccc(F)c(F)c2)cc1-c1cccnc1 [compound 19]	4270	2	–
Cc1cc(-c2cc(Nc3ccc(F)c(F)c3)nn2CCC(=O)N(C)C)cc(C)n1 [compound 119]	1100	2	–
COc1cc(Nc2cc(-c3ccnc(C)c3)n(CCC(=O)N(C)C)n2)cc(C(F)(F)F)c1 [compound 143]	575	4	–
COc1cc(Nc2cc(-c3ccnc(C)c3)n(CC(=O)NCC3CC3)n2)cc(C(F)(F)F)c1 [compound 131]	813	2	–
CCNC(=O)Cn1nc(Nc2ccc(F)c(C(F)(F)F)c2)cc1-c1ccc(C)nc1 [compound 27]	1150	2	–

Source: patent US8779158B2, “Trisubstituted pyrazoles as acetylcholine receptor modulators” (Janssen Pharmaceutica NV, priority 2008, dated 2014)
